# Data taken from patent publication US20090221505A1, “COMPOSITIONS AND METHODS RELATED TO SYNCHRONOUS SELECTION OF HOMING PEPTIDES FOR MULTIPLE TISSUES BY IN VIVO PHAGE DISPLAY” (priority 2004, published 2009).
# “Also recorded” adds a separate entry of the source. Where no end group is shown, it is not given here.
# T1: purified recombinant rabbit PRLR (Oryctolagus cuniculus, UniProt P14787)
# T1 construct: purchased Protein Laboratories Rehovot, Israel
# T1 sequence (P14787 25-234 limits assumed): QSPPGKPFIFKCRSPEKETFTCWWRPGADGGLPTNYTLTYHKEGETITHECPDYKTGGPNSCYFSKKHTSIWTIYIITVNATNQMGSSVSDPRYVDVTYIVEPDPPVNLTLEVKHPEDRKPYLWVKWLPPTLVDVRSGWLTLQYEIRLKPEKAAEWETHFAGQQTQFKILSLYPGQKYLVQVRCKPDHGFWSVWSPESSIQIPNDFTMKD
# B1: …-phage (phage displaying the … motif, SEQ ID NO 30) (peptide, part only; not given: phage coat protein, part only)
# peptide, part: CRVASVLPC
# modifications: not fully specified (bridges); cysteine pairing not given here; also: displayed on filamentous phage (fUSE5)
# How the values were obtained:
# [1] = test system: COS-1 cells transfected with PRLR; assay: Immunofluorescence of phage binding and internalization into COS-1 cells transfected with PRLR; assay type: cell-based; conditions: 10^9 TU phage
# Protocol: (§1) Immunolocalization Immunofluorescent detection of PRLR expression in COS-1 cells was performed by using anti-PRLR antibody MAI-610 (Affinity Bioreagents) diluted to 20 μg/ml and a secondary FITC-conjugated goat anti-mouse antibody F-0257 (Sigma) at 1 100 dilution. For validating phage binding and internalization into COS-1 cells transfected with PRLR, 10^9 TU of phage displaying PRLR-binding or mutant peptides were subjected to cell binding and internalization as described (Zurita et al, 2004). Immunodetection of cell-associated phage was performed with anti-fd antibody B-7786 (Sigma) at 1 500 dilution and a secondary Cy3-conjugated donkey anti-rabbit antibody 711-165-152 (Jackson) at 3 μg/ml. For phage-peptide immunolocalization in situ, 10^10 TU of iv-injected phage were let circulate for 5 min. Immunohistochemistry on formalin-fixed, paraffin-embedded mouse tissue sections was performed as described (Paqualini et al, 2001, Arap et al, 2002) by using anti-fd antibody B-7786 at 1 1,000 dilution and the LSAB+ peroxidase kit (DAKO)
# [2] = test system: COS-1 cells transfected with PRLR; assay: Phage binding to COS-1 cells transfected with PRLR (BRASIL); assay type: cell-based; conditions: for Binding of phage to PRLR-transfected COS-1 cells (in words) / Isolation by biopanning on cell-surface expressed PRLR: BRASIL; for Binding of phage to PRLR-transfected COS-1 cells (in words): FIG. 5A-5B; for Isolation by biopanning on cell-surface expressed PRLR: pancreas-homing phage pool (rounds 2 and 3), single round
# Protocol: (§2) Phage-peptide binding to PRLR To identify peptides binding to PRLR, phage clones isolated from the pancreas in rounds 2 and 3 of the screening were individually amplified and pooled. For panning on immobilized PRLR, 10^9 TU of the mixed phage clones were incubated overnight at 4° C. with […] of purified recombinant rabbit PRLR (Protein Laboratories Rehovot, Israel), or BSA control, immobilized on plastic. Unbound phage were extensively washed off with PBS, and then the bound phage were recovered by infecting host K91 E. coli directly on the plate. For panning on cell surface-expressed PRLR, COS-1 cells (ATCC) were transiently transfected with pECE-PRLR as described (Wang et al, 1997) and subjected to biopanning with the amplified pancreas-isolated phage using the BRASIL protocol (Giordano et al, 2001). In each biopanning, bound phage were selected for tetracycline resistance, quantified by infecting host K91 E. coli and sequenced. […] Phage displaying forward (CRVASVLPC) (SEQ ID NO 30), reverse CPLVSAVRC(SEQ ID NO 34), and the alanine point mutants were titered in-parallel with insertless fd-tet phage and tested for binding to COS-1 cells transfected with PRLR by using the BRASIL method (Giordano et al, 2001). COS-1 cells not transfected with PRLR served as a negative control.
# skeletal muscle = assay: Anti-phage immunohistochemistry after iv phage injection, skeletal muscle; assay type: in vivo, mouse
# Protocol: as §1
# Pancreas = assay: Anti-phage immunohistochemistry after iv phage injection, pancreas; assay type: in vivo, mouse
# Protocol: as §1
# [3] = target: T1, purified recombinant rabbit PRLR; assay: Panning of pancreas-homing phage on immobilized PRLR (BSA control); assay type: binding; conditions: pancreas-homing phage pool (rounds 2 and 3), single round
# Protocol: as §2
# [4] = target: PRLR (prolactin receptor) expressed on the surface of COS-1 cells transfected with pECE-PRLR; assay: phage binding to prlR-transfected COS-1 cells
# [5] = target: PRLR (prolactin receptor) expressed on the surface of COS-1 cells transfected with pECE-PRLR; assay: phage binding to PRLR-transfected COS-1 cells, BRASIL
# Chain of PRLR (prolactin receptor) expressed on the surface of COS-1 cells transfected with pECE-PRLR (P05710 20-610): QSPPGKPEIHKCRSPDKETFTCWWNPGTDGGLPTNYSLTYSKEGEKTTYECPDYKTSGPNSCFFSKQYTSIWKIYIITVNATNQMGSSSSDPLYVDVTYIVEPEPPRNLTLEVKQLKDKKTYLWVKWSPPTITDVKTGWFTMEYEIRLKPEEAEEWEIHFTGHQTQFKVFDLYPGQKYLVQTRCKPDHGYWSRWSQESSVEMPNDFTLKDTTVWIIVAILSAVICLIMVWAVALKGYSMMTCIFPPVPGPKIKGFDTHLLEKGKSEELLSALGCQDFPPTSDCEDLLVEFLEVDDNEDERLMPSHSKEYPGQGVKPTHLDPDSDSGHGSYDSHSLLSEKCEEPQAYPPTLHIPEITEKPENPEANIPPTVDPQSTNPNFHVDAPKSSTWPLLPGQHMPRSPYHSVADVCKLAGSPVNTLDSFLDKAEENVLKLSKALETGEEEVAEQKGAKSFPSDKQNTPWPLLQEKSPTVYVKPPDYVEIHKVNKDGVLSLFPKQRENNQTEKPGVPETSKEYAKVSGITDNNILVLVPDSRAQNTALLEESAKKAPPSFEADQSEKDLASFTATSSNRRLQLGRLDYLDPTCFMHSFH
molecule,measurement,setting,value
CPLVSAVRC,"Phage binding, internalization and co-localization with PRLR-expressing cells",[1],bound and internalized specifically by cells expressing PRLR
same,Binding of phage to PRLR-transfected COS-1 cells (in words),[2],did not significantly decrease its binding to PRLR
CRVASVLPC [tested as phage clone],Phage localization in skeletal muscle,skeletal muscle,but not to skeletal muscle
same,"Phage binding, internalization and co-localization with PRLR-expressing cells",[1],co-localized; also recorded: bound and internalized specifically by cells expressing PRLR
same,Phage localization in pancreas,Pancreas,localized to pancreatic blood vessels and the islets of Langerhans; also recorded: to pancreatic blood vessels and the pancreatic islet cells
same,Binding of phage to PRLR-transfected COS-1 cells (in words),[2],Specific binding
same,Binding of phage to COS-1 cells transfected with prlR relative to background binding by controls,[2]; controls: muscle-homing phage or insertless phage,five
same,Binding of phage to COS-1 cells transfected with PRLR relative to nonspecific binding to non-transfected COS-1 cells,"[2]; negative control: non-transfected COS-1 cells, FIG. 5A",9 fold
CYAIGSFDC (phage-displayed) [control muscle-homing phage clone displaying …],Phage localization in skeletal muscle,skeletal muscle,found predominantly in the vasculature of skeletal muscle; also recorded: found predominantly in the vasculature of the skeletal muscle
same,Phage localization in pancreas,Pancreas,but not in the pancreas
LPTLSLN (not fully specified),Isolation by biopanning on in vitro immobilized PRLR,[3],isolated by biopanning on both in vitro immobilized and cell-surface expressed PRLR
same,Isolation by biopanning on cell-surface expressed PRLR,[2],isolated by biopanning on both in vitro immobilized and cell-surface expressed PRLR
QVHSSAY (not fully specified),Isolation by biopanning on in vitro immobilized PRLR,[3],isolated by biopanning on both in vitro immobilized and cell-surface expressed PRLR
same,Isolation by biopanning on cell-surface expressed PRLR,[2],isolated by biopanning on both in vitro immobilized and cell-surface expressed PRLR
SGATGRA (not fully specified),Isolation by biopanning on in vitro immobilized PRLR,[3],isolated by biopanning on both in vitro immobilized and cell-surface expressed PRLR
same,Isolation by biopanning on cell-surface expressed PRLR,[2],isolated by biopanning on both in vitro immobilized and cell-surface expressed PRLR
SGPTGRA (not fully specified),Isolation by biopanning on in vitro immobilized PRLR,[3],isolated by biopanning on both in vitro immobilized and cell-surface expressed PRLR
same,Isolation by biopanning on cell-surface expressed PRLR,[2],isolated by biopanning on both in vitro immobilized and cell-surface expressed PRLR
VFSDYKR (not fully specified),Isolation by biopanning on in vitro immobilized PRLR,[3],isolated by biopanning on both in vitro immobilized and cell-surface expressed PRLR
same,Isolation by biopanning on cell-surface expressed PRLR,[2],isolated by biopanning on both in vitro immobilized and cell-surface expressed PRLR
B1,fold binding over control phage (muscle-homing or insertless),[4],5 fold
same,fold binding over non-transfected COS-1 cells,[5],9 fold
